This passage reports inhibition, residual activity and % of control results from ChEMBL document CHEMBL5696442, “Discovery of type II inhibitors of TGFβ-activated kinase 1 (TAK1) and mitogen-activated protein kinase kinase kinase kinase 2 (MAP4K2)” (J Med Chem, 2015).

Calls of active or inactive are those of the source. The rule behind the calls is not given here.

For test [1], the target named is T1, Serine/threonine-protein kinase STK11 (Homo sapiens) (UniProt Q15831).
T1 sequence (whole entry): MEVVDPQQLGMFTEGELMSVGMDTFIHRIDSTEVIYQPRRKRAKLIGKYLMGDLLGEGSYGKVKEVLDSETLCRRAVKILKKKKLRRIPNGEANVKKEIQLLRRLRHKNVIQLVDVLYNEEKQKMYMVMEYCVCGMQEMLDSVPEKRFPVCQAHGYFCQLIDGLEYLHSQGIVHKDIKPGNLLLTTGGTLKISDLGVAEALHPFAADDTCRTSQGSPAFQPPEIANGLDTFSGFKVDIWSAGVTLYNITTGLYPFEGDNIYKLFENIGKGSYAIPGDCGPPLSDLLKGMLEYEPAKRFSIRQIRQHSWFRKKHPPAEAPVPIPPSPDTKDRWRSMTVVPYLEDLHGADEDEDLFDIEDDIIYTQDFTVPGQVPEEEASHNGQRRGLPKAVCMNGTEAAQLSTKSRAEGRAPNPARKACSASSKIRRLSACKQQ
As to the kind of experiment: Inhibition of LKB1 Lys2 labeling site in human Huh-7 cells at 1 uM by KiNativ Profiling analysis relative to control. Format: cell-based.

The target in test [2] is Cyclin-dependent kinase 1 (Homo sapiens) (UniProt P06493). As to the kind of experiment: Inhibition of CDC2 Lys2 labeling site in human Huh-7 cells at 1 uM by KiNativ Profiling analysis relative to control. Format: cell-based.
Sequence of Cyclin-dependent kinase 1 (Homo sapiens) (P06493 whole entry, looked up, the tested form may be a part): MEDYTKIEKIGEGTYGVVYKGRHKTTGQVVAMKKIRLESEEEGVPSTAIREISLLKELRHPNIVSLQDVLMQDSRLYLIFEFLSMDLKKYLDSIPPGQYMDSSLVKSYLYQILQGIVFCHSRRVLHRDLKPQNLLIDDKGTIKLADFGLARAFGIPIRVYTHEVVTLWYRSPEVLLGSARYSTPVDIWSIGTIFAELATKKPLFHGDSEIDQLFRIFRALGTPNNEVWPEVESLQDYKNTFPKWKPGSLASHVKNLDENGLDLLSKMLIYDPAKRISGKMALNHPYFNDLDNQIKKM
Test [3] addresses Ribosomal protein S6 kinase alpha-3 (Homo sapiens) (UniProt P51812). The test is described as follows: Inhibition of RSK2 domain1 ACT labeling site harbouring LTDFGLSKESIDHEKK in human Huh-7 cell lysate at 1 uM by KiNativ Profiling analysis relative to control. Format: subcellular.
Test [4] deals with Tyrosine-protein kinase Fyn (Homo sapiens) (UniProt P06241). As to the kind of experiment: Inhibition of FYN ACT labeling site in human A-375 cells at 0.05 uM by KiNativ Profiling analysis relative to control. The format is cell-based.
Sequence of Tyrosine-protein kinase Fyn (Homo sapiens) (P06241 2-537 limits assumed): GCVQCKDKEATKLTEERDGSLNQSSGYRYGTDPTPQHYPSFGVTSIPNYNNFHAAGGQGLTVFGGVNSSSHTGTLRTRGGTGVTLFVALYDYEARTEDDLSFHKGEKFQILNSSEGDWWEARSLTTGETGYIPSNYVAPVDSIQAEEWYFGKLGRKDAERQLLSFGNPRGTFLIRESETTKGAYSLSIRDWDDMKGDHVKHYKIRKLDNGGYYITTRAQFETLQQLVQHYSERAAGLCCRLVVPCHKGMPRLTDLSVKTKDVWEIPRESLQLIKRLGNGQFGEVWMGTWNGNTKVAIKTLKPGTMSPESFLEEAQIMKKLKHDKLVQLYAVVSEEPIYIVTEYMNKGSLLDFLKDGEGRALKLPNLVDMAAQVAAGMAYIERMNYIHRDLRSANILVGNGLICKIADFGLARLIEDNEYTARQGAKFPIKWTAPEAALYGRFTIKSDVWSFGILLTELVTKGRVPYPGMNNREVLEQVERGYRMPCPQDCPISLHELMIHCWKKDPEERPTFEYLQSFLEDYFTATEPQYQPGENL
Test [5] concerns the target T1, Serine/threonine-protein kinase STK11 (Homo sapiens). The test is described as follows: Inhibition of LKB1 Lys2 labeling site in human A-375 cells at 0.5 uM by KiNativ Profiling analysis relative to control. Format: cell-based.
The target of test [6] is Serine/threonine-protein kinase 4 (Homo sapiens) (UniProt Q13043). The test is described as follows: Inhibition of MST1 Lys1 labeling site harbouring AIHKETGQIVAIKQVPVESDLQEIIK in human A-375 cells at 5 uM by KiNativ Profiling analysis relative to control.
Sequence of Serine/threonine-protein kinase 4 (Homo sapiens) (Q13043 whole entry, looked up): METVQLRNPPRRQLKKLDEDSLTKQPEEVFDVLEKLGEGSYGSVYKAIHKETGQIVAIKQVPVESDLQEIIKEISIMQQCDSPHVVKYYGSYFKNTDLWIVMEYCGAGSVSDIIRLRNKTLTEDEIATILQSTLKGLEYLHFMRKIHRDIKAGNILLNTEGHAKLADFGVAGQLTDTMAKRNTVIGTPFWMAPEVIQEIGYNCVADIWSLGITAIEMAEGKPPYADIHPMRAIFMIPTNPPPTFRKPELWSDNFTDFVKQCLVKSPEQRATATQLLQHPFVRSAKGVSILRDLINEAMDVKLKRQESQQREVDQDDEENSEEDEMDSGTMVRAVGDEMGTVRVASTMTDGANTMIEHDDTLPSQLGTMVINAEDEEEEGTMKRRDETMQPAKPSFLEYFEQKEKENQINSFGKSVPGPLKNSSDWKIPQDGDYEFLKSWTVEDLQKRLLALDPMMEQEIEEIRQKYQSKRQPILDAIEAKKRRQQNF
In test [7] the target is Mitogen-activated protein kinase kinase kinase 9 (Homo sapiens) (UniProt P80192). As to the kind of experiment: Inhibition of MLK1 (unknown origin) at 1 uM by Ambit Kinomescan binding assay relative to control; values are per cent of control.
Sequence of Mitogen-activated protein kinase kinase kinase 9 (Homo sapiens) (P80192 whole entry, looked up): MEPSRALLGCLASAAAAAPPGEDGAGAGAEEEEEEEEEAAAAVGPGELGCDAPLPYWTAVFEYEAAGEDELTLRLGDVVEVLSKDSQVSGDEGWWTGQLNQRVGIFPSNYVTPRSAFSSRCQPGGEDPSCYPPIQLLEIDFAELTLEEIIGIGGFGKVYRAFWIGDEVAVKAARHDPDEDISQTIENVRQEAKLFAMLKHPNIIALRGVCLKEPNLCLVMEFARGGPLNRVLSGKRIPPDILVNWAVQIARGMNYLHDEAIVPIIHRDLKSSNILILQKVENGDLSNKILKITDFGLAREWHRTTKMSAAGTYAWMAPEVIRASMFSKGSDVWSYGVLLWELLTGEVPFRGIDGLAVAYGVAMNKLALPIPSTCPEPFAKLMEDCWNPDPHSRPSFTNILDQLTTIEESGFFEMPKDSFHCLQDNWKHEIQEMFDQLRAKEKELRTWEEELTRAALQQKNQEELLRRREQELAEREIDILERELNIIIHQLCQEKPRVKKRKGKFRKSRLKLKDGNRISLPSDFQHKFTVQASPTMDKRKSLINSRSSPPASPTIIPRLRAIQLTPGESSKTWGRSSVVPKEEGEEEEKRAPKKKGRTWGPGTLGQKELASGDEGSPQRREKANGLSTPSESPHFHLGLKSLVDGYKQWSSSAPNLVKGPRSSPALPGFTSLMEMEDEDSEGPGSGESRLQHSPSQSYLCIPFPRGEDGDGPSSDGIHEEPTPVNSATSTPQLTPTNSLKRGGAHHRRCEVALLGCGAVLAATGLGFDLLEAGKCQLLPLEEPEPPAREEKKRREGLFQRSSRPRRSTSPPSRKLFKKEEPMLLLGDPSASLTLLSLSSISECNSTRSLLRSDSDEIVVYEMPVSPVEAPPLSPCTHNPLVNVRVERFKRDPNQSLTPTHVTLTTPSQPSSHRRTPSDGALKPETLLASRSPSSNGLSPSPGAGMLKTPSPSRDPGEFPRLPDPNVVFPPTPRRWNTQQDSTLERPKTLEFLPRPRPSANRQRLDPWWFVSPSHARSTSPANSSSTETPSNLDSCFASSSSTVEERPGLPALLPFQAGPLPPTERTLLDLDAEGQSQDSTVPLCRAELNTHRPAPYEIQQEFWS
Test [8] deals with T2, Serine/threonine-protein kinase TAO1 (Homo sapiens) (UniProt Q7L7X3).
T2 sequence (whole entry): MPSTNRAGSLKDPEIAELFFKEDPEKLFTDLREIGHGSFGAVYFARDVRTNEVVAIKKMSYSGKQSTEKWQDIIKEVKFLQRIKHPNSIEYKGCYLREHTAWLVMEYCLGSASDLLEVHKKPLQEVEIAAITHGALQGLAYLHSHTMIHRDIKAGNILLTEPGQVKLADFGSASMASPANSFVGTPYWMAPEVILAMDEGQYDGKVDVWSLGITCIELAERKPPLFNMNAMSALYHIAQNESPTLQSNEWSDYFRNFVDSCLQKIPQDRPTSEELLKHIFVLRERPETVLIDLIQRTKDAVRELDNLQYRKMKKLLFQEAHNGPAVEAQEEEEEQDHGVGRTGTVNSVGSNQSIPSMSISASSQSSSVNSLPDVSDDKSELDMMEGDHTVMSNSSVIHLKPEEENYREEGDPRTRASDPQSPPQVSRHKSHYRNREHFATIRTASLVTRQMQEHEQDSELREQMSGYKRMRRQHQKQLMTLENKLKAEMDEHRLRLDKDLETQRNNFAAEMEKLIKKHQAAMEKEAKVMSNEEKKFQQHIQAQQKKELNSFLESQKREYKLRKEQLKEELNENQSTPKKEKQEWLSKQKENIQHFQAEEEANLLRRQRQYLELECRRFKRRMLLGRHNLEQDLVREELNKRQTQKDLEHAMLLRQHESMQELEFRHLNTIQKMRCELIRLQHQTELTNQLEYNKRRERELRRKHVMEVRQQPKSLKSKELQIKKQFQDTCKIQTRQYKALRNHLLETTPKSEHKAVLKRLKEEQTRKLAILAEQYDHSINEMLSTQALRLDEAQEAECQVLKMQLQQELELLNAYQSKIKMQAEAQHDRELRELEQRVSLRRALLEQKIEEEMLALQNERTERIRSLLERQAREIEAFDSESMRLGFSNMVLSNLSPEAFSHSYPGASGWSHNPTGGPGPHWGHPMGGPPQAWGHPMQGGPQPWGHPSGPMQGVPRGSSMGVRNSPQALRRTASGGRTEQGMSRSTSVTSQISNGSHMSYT
As to the kind of experiment: Inhibition of TAO1 Lys2 labeling site in human A-375 cells at 5 uM by KiNativ Profiling analysis relative to control. The format is cell-based.

In test [9] the target is Tyrosine-protein kinase ABL2 (Homo sapiens, UniProt P42684). As to the kind of experiment: Inhibition of ABL2 (unknown origin) at 1 uM by Ambit Kinomescan binding assay relative to control; values are per cent of control.
Sequence of Tyrosine-protein kinase ABL2 (P42684 whole entry): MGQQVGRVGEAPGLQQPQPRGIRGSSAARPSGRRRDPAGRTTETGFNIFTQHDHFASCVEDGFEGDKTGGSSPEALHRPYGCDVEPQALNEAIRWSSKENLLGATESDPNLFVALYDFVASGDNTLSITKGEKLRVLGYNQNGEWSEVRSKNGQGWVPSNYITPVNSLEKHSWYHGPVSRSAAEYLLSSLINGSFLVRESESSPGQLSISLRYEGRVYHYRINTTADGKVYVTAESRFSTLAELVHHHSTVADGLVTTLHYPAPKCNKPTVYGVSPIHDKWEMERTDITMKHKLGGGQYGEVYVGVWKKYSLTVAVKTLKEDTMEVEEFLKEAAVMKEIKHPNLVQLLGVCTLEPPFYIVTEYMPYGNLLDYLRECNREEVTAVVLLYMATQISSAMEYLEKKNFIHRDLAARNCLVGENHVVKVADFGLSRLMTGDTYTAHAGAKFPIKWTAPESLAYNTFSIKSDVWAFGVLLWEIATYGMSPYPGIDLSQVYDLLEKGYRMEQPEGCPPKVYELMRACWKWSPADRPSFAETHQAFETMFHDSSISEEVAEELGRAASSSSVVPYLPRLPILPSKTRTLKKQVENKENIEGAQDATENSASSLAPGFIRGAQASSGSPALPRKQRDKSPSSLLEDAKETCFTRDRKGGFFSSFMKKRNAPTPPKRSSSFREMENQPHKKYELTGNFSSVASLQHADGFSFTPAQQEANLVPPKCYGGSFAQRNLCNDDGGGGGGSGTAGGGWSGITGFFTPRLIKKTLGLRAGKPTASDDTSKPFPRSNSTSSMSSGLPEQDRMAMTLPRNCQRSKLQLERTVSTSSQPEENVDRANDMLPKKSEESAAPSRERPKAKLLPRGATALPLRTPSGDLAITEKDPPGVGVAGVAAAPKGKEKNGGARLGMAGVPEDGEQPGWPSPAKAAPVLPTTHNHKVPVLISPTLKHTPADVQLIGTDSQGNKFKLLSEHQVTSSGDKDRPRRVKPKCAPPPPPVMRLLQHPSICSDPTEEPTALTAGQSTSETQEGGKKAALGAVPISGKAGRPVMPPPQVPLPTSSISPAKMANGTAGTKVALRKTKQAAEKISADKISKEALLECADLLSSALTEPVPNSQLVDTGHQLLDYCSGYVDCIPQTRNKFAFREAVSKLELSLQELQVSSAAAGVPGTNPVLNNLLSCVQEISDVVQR
Test [10] relates to Receptor-type tyrosine-protein kinase FLT3 (Homo sapiens), P36888 [R834Q]. As to the kind of experiment: Inhibition of FLT3 R834Q mutant (unknown origin) at 1 uM by Ambit Kinomescan binding assay relative to control; values are per cent of control.
The target of test [11] is Casein kinase I isoform epsilon (Homo sapiens) (UniProt P49674). As to the kind of experiment: Inhibition of CK1epsilon Lys2 labeling site in human A-375 cells at 0.5 uM by KiNativ Profiling analysis relative to control. The format is cell-based.
Sequence of Casein kinase I isoform epsilon (Homo sapiens) (P49674 whole entry, looked up, canonical isoform): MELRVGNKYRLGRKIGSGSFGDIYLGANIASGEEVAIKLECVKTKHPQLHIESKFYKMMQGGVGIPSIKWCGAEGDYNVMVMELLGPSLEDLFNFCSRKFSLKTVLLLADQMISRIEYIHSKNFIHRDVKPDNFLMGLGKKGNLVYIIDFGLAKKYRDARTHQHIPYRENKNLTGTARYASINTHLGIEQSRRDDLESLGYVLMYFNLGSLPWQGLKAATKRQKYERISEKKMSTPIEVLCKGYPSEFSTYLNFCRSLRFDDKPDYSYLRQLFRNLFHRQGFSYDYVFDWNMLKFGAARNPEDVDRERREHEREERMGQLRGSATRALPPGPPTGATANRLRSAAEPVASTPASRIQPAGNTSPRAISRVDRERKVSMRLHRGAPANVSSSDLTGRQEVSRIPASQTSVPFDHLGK
The target of test [12] is T3, Phosphatidylinositol 5-phosphate 4-kinase type-2 alpha (Homo sapiens) (UniProt P48426).
T3 sequence (whole entry): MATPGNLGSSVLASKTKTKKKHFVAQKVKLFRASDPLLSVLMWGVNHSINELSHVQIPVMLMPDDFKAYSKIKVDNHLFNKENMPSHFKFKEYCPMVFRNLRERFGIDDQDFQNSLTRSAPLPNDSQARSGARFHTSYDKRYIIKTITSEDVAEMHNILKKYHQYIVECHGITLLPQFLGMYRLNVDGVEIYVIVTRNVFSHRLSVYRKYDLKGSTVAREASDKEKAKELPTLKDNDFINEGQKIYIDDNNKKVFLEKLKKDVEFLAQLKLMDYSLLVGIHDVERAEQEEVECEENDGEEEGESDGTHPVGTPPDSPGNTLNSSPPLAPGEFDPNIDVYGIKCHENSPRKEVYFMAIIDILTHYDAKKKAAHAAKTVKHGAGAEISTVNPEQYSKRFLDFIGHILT
As to the kind of experiment: Inhibition of PIP4K2A ATP labeling site in human A-375 cells at 0.05 uM by KiNativ Profiling analysis relative to control. Format: cell-based.

For test [13], the target named is Phosphorylase b kinase gamma catalytic chain, skeletal muscle/heart isoform (Homo sapiens) (UniProt Q16816). As to the kind of experiment: Inhibition of PHKG1 (unknown origin) at 10 uM by Ambit Kinomescan binding assay.
Sequence of Phosphorylase b kinase gamma catalytic chain, skeletal muscle/heart isoform (Homo sapiens) (Q16816 whole entry, looked up, canonical isoform): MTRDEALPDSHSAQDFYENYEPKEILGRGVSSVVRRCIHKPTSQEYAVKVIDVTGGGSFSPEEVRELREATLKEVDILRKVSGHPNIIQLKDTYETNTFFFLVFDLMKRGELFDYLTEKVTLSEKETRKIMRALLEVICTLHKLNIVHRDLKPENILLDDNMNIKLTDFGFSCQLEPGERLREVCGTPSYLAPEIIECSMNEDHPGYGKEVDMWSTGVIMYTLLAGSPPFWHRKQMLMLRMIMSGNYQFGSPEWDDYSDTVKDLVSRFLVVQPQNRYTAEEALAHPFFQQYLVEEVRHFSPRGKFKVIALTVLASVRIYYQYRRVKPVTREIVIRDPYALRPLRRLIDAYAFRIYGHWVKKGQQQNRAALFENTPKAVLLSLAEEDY

For orientation: inhibition means the change of the read-out against control, counted positive when it falls.

Consider `CNc1cc(Oc2cc(C(=O)Nc3cc(N4CCN(C)CC4)cc(C(F)(F)F)c3)ccc2C)ncn1`, for which the inhibition is 15.1% in [1], 5% in [2] and -2.2% in test [3].
Consider `CCN1CCN(Cc2ccc(NC(=O)c3ccc(C)c(/C=C/c4cnc5[nH]ccc5c4OC)c3)cc2C(F)(F)F)CC1`, for which the inhibition in test [4] stood at 38.9%; in test [5] it was 32.2%; in test [6], 16.1%; in [8] it was 66.2%. The residual activity came out at 4.7% in [7] and 7.4% in [10]. The same compound yielded a % of control in [9] of 0.7%.
In the case of `CCN1CCN(Cc2ccc(NC(=O)c3ccc(C)c(Oc4ccnc5[nH]ccc45)c3)cc2C(F)(F)F)CC1`, the inhibition in test [11] amounted to 3.3%; in test [12], 13.2%. Further, in [13], the inhibition entry was “inactive”.
